# Values joined by “and” are separate entries in the source; they are usually repeats but may differ in a detail not shown here. Equal values may be shown once.
# What was measured:
# [1] = Metabolic stability in mouse whole blood; type: in vitro ADME; conditions: for Percentage Remaining: mouse whole blood, replicates 1 and 2, listed as Fosmetpantotenate Total
# Protocol: (§1) Metabolic stability in blood and liver microsomes: Fosmetpantotenate or its individual diastereomers (5 μM, n = 2, 37°C) were incubated in mouse, rat, cynomolgus monkey, and human whole blood. Samples (50 μL) were taken at 0, 5, 15, 30, and 60 min. Incubations of fosmetpantotenate or its individual diastereomers (1 μM, n = 2, 37°C) in pooled liver microsomes (0.25 mg protein/mL in 0.1 M phosphate buffer pH 7.4) were initiated with the addition of nicotinamide adenine dinucleotide phosphate (NADPH; 1 mM). Aliquots (100 μL) were obtained at 0, 5, 10, 20, and 40 min and added to 150 μL of 0.1% formic acid in acetonitrile-containing carbamazepine (0.5 μM) as an analytical internal standard, centrifuged, and the supernatants analyzed by LC-MS/MS.
# Bioanalysis for determinations of analyte stability: Samples were analyzed using a benchtop tandem quadrupole detector (TQD) mass spectrometer (Waters Ltd, Centennial Park, Hertfordshire). […] Suitable retention and peak shape with separation of the 2 diastereomers were obtained. The chromatography column was a Phenomenex-Kinetex XB C18 (2.10 x 50 mm; 2.6 μm), with a 0.7 mL/min flow rate and a 2 μL injection volume. […] The gradient was initiated with 20% B and increased linearly, reaching 40% B at 0.6 min, followed by 50% B at 0.8 min and by 95% B at 0.9 min. Conditions were kept isocratic through 1.2 min, returned to starting conditions (20% B) at 1.25 min, and maintained at 20% B through 1.5 min before the next injection. Since fosmetpantotenate is a mixture of diastereomers which are resolved chromatographically, the fosmetpantotenate MRM area corresponds to the sum of the MRM areas of the individual diastereomers.
# The percent of compound remaining was determined from the MRM area response in each sample relative to that in the T = 0 samples (normalized for internal standard). Natural log plots of the percent compound remaining over time were used to determine the t½ of compound disappearance using the relationship t½ = -0.693/λ, where λ is the slope of the natural logarithm of the percent compound remaining vs time curve.
# [2] = Metabolic stability in mouse liver microsomes; type: in vitro ADME; conditions: pooled liver microsomes
# Protocol: as §1
# (§2) Bioanalysis for determinations of analyte stability: Samples were analyzed using a benchtop tandem quadrupole detector (TQD) mass spectrometer (Waters Ltd, Centennial Park, Hertfordshire). […] Suitable retention and peak shape with separation of the 2 diastereomers were obtained. The chromatography column was a Phenomenex-Kinetex XB C18 (2.10 x 50 mm; 2.6 μm), with a 0.7 mL/min flow rate and a 2 μL injection volume. […]
# (§3) The percent of compound remaining was determined from the MRM area response in each sample relative to that in the T = 0 samples (normalized for internal standard). […]
# [3] = test system: porcine brain endothelial cell (PBEC) co-culture model; assay: In vitro blood-brain barrier permeability (PBEC/rat astrocyte co-culture); conditions: in words
# Protocol: Permeability studies were performed after 2 days of co-culture with rat astrocytes. […] In each filter used for transport, a paracellular marker was included as an internal control to monitor the integrity of the cell monolayer. The day of the experiment, culture medium was removed and cells on Transwell inserts were pre-incubated for 30 min with Hank's Balanced Salt Solution (HBSS) containing 20 mM Hepes pH 7.4 and 0.1% bovine serum albumin (BSA). […] Aliquots from the basal compartment were taken after 1 h; fluorescence was measured using a fluorescence detector. The permeability coefficient of the total system was calculated as follows: P[cm/s]=Vd×ΔMr/A×Md×Δt Where:
# To correct for the contribution of the porous polycarbonate membrane of the filter in the absence of cells, the permeability was also determined for the cell-free system. Contribution of the endothelial cell monolayer to the permeability of the cell and filter system was determined by the following equation: 1/Pe=1/Pt-1/Pf Where the total permeability of the system is denoted as Pt, the cell-free filter as Pf, and the endothelial cell layer alone as Pe. The total resistance of the system towards passage of a substance is composed of 2 resistances in series: that of the cell monolayer and that of the filter; permeability is estimated as 1/resistance [27]. […] Mass balance was determined based on the amount of compound recovered in the donor and receiver chamber at the end of the assay relative to the amount added to the donor chamber at time 0.
# [4] = Microdialysis (brain striatal dialysate) in C57Bl6 mice; conditions: for Fosmetpantotenate Total Concentration in Mouse Striatal Dialysate (Corrected for Dilution): individual mice, non-fasted male C57/Bl6; for Fosmetpantotenate Total Concentration in Mouse Striatal Dialysate (Corrected for Dilution), Mean: mean of 8 mice
# Protocol: Mice were anesthetized using isoflurane (2%, 800 mL/min O2).
# For oral dosing experiments, MetaQuant microdialysis probes (regenerated cellulose membrane, BrainLink, the Netherlands) were inserted into the striatum (3 mm exposed surface). Coordinates for the tips of the probes for mice were anterior-posterior (AP) = +0.8 mm from bregma, lateral (L) = -1.7 mm from midline, and ventral (V) = -4.0 mm from dura, the toothbar set at 0 mm.
# Microdialysis animal dosing and sample collection: Adult non-fasted male C57Bl6 mice (20–29 g; Harlan Laboratories, Livermore, CA), and Macaca fascicularis (4–9 kg, 3–6 yr old) were used for the experiments. For oral dosing, fosmetpantotenate was formulated as a solution in 20% hydroxypropyl-beta-cyclodextrin in 50 mM citrate buffer in water pH 5.0 and administered using a dose volume of 10 mL/kg. Mice (N = 6 serially sampled) received fosmetpantotenate as a single oral dose at 700 mg/kg and monkeys received a single oral dose at either 100 mg/kg (N = 4 serially sampled) or 300 mg/kg (N = 2 serially sampled).
# Microdialysis: On the morning of the microdialysis experiment, a MetaQuant probe was inserted into the guide shaft targeting the head of the caudate nucleus and perfused at a rate of 0.15 μL/min aCSF containing 0.2% (w/v) BSA, with a carrier flow of 0.8 μL/min of ultrapure water.
# A single 30 min pre-dose basal dialysate sample was collected from mice over -0.5 to 0 h, and three 30 min basal samples from monkeys over -1.5 to 0 h. Fosmetpantotenate was administered at t = 0, and 30 min dialysate samples were collected for an additional 4 h for mice and 3 h for monkeys.
# Sample preparation for mouse dialysate samples: Concentrations of fosmetpantotenate, PA, and PPA in mouse dialysate were determined by Nextcea, Inc, Woburn, MA, using LC-MS/MS. Standard curves and QC samples containing fosmetpantotenate (D1 and D2) and the surrogate analytes for PA and PPA (^15N/^13C3-PA and ^15N/^13C3-PPA) were prepared fresh in 0.1% formic acid in water. Frozen study mouse dialysate samples were thawed in ice/water bath. Standards, QC samples, and thawed study dialysate samples (20 μL) were mixed with 20 μL 0.1% formic acid in water containing internal standard (50 ng/mL of ^15N/^13C3-fosmetpantotenate) and analyzed by LC-MS/MS.
# LC-MS/MS analysis for mouse dialysate samples: Concentrations of fosmetpantotenate, PA, and PPA in dialysate from mice were determined by using LC-MS/MS conditions described for blood PK analysis by Nextcea, except dialysate samples were analyzed using an ACIEX API 5000 and flow rate was increased to 0.6 mL/min.
# Quantitation of in vivo samples: Peak areas were integrated using Analyst software (AB Sciex, Concord, Ontario, Canada). Calibration curves for all blood samples from mouse and rat PK studies and mouse dialysate samples were prepared by plotting the analyte to internal standard (^15N/^13C3-fosmetpantotenate) peak area ratio vs concentration.
# [5] = Metabolic stability in monkey liver microsomes; type: in vitro ADME; conditions: pooled liver microsomes
# Protocol: as §1, §2, §3
# [6] = pH 7.4, read-out: intrinsic clearance
# [7] = single oral 700 mg/kg fosmetpantotenate, collection time 0 hr, BQL=8.08 nM
# [8] = single oral 700 mg/kg fosmetpantotenate, collection time 0.5 hr, BQL=8.08 nM
# [9] = single oral 700 mg/kg fosmetpantotenate, collection time 1 hr, BQL=8.08 nM
# [10] = single oral 700 mg/kg fosmetpantotenate, collection time 1.5 hr, BQL=8.08 nM
# [11] = single oral 700 mg/kg fosmetpantotenate, collection time 2 hr, BQL=8.08 nM
# [12] = single oral 700 mg/kg fosmetpantotenate, collection time 2.5 hr, BQL=8.08 nM
# [13] = single oral 700 mg/kg fosmetpantotenate, collection time 3 hr, BQL=8.08 nM
# [14] = single oral 700 mg/kg fosmetpantotenate, collection time 3.5 hr, BQL=8.08 nM
# [15] = single oral 700 mg/kg fosmetpantotenate, collection time 4 hr, BQL=8.08 nM
# [16] = male, C57Bl6, mouse, striatal dialysate (brain microdialysate), other: direct infusion into the striatum via cannula, 125 µg per animal
compound,measurement,setting,value
COC(=O)CCNC(=O)[C@H](O)C(C)(C)COP(=O)(N[C@@H](C)C(=O)OC)Oc1ccccc1 (mixture of isomers) [Fosmetpantotenate],half-life at 5 μM,"[1]; mouse blood, 5 μM, 37°C, 60 min",< 5 min
same,Percentage Remaining,[1]; 5 min,1%
same,Percentage Remaining,[1]; 15 min,1%
same,half-life at 1 μM,"[2]; pH 7.4, 1 μM, NADPH",11 min
same,microsomal CLint at 1 μM,[2]; [6],247 µL/min/mg
same,blood-brain barrier permeability classification,[3],permeable
same,Fosmetpantotenate Total Concentration in Mouse Striatal Dialysate (Corrected for Dilution),[4]; [7],BQL
same,Fosmetpantotenate Total Concentration in Mouse Striatal Dialysate (Corrected for Dilution),[4]; [8],BQL
same,Fosmetpantotenate Total Concentration in Mouse Striatal Dialysate (Corrected for Dilution),[4]; [9],BQL
same,Fosmetpantotenate Total Concentration in Mouse Striatal Dialysate (Corrected for Dilution),[4]; [10],BQL
same,Fosmetpantotenate Total Concentration in Mouse Striatal Dialysate (Corrected for Dilution),[4]; [11],BQL
same,Fosmetpantotenate Total Concentration in Mouse Striatal Dialysate (Corrected for Dilution),[4]; [12],BQL
same,Fosmetpantotenate Total Concentration in Mouse Striatal Dialysate (Corrected for Dilution),[4]; [13],BQL
same,Fosmetpantotenate Total Concentration in Mouse Striatal Dialysate (Corrected for Dilution),[4]; [14],BQL
same,Fosmetpantotenate Total Concentration in Mouse Striatal Dialysate (Corrected for Dilution),[4]; [15],BQL
same,Fosmetpantotenate Total Concentration in Mouse Striatal Dialysate (Corrected for Dilution),"[4]; single oral dose (so in the source) 125 µg fosmetpantotenate per animal, collection time 0 hr",0.1306 µM and 0.109 µM and 0.0833 µM and 0.3107 µM and 0.3579 µM and 0.2168 µM and 0.4624 µM
same,Fosmetpantotenate Total Concentration in Mouse Striatal Dialysate (Corrected for Dilution),"[4]; single oral dose (so in the source) 125 µg fosmetpantotenate per animal, collection time 0.5 hr",27.5961 µM and 228.5933 µM and 5852.2469 µM and 2389.398 µM and 1463.0617 µM and 6013.9111 µM and 2121.0353 µM
same,Fosmetpantotenate Total Concentration in Mouse Striatal Dialysate (Corrected for Dilution),"[4]; single oral dose (so in the source) 125 µg fosmetpantotenate per animal, collection time 1 hr",3.7441 µM and 35.9218 µM and 1147.8164 µM and 370.2112 µM and 269.3327 µM and 936.0362 µM and 475.293 µM
same,Fosmetpantotenate Total Concentration in Mouse Striatal Dialysate (Corrected for Dilution),"[4]; single oral dose (so in the source) 125 µg fosmetpantotenate per animal, collection time 1.5 hr",0.2457 µM and 3.8638 µM and 77.1139 µM and 16.3443 µM and 13.2241 µM and 54.6749 µM and 52.7026 µM
same,Fosmetpantotenate Total Concentration in Mouse Striatal Dialysate (Corrected for Dilution),"[4]; single oral dose (so in the source) 125 µg fosmetpantotenate per animal, collection time 2 hr",0.2142 µM and 1.3919 µM and 11.6398 µM and 2.8307 µM and 6.9839 µM and 18.3812 µM and 13.5798 µM
same,Fosmetpantotenate Total Concentration in Mouse Striatal Dialysate (Corrected for Dilution),"[4]; single oral dose (so in the source) 125 µg fosmetpantotenate per animal, collection time 2.5 hr",0.2094 µM and 0.4624 µM and 4.0416 µM and 0.9538 µM and 6.8061 µM and 14.469 µM and 7.8892 µM
same,Fosmetpantotenate Total Concentration in Mouse Striatal Dialysate (Corrected for Dilution),"[4]; single oral dose (so in the source) 125 µg fosmetpantotenate per animal, collection time 3 hr",0.1664 µM and 0.2839 µM and 1.9869 µM and 1.0929 µM and 4.1402 µM and 11.268 µM and 3.6164 µM
same,Fosmetpantotenate Total Concentration in Mouse Striatal Dialysate (Corrected for Dilution),"[4]; single oral dose (so in the source) 125 µg fosmetpantotenate per animal, collection time 3.5 hr",0.1305 µM and 0.2331 µM and 1.7056 µM and 0.6693 µM and 3.2575 µM and 11.9147 µM and 1.9173 µM
same,Fosmetpantotenate Total Concentration in Mouse Striatal Dialysate (Corrected for Dilution),"[4]; single oral dose (so in the source) 125 µg fosmetpantotenate per animal, collection time 4 hr",0.1387 µM and 0.2171 µM and 1.4129 µM and 0.5497 µM and 2.2649 µM and 9.8939 µM and 1.5099 µM
same,concentration at 0 h,[4]; [16],0.239 µM
same,concentration at 0.5 h,[4]; [16],2590 µM
same,concentration at 1 h,[4]; [16],463 µM
same,concentration at 1.5 h,[4]; [16],31.2 µM
same,concentration at 2 h,[4]; [16],7.86 µM
same,concentration at 2.5 h,[4]; [16],4.98 µM
same,concentration at 3 h,[4]; [16],3.22 µM
same,concentration at 3.5 h,[4]; [16],2.83 µM
same,concentration at 4 h,[4]; [16],2.28 µM
same,"Fosmetpantotenate Total Concentration in Mouse Striatal Dialysate (Corrected for Dilution), Mean",[4]; [7],BQL
same,"Fosmetpantotenate Total Concentration in Mouse Striatal Dialysate (Corrected for Dilution), Mean",[4]; [8],BQL
same,"Fosmetpantotenate Total Concentration in Mouse Striatal Dialysate (Corrected for Dilution), Mean",[4]; [9],BQL
same,"Fosmetpantotenate Total Concentration in Mouse Striatal Dialysate (Corrected for Dilution), Mean",[4]; [10],BQL
same,"Fosmetpantotenate Total Concentration in Mouse Striatal Dialysate (Corrected for Dilution), Mean",[4]; [11],BQL
same,"Fosmetpantotenate Total Concentration in Mouse Striatal Dialysate (Corrected for Dilution), Mean",[4]; [12],BQL
same,"Fosmetpantotenate Total Concentration in Mouse Striatal Dialysate (Corrected for Dilution), Mean",[4]; [13],BQL
same,"Fosmetpantotenate Total Concentration in Mouse Striatal Dialysate (Corrected for Dilution), Mean",[4]; [14],BQL
same,"Fosmetpantotenate Total Concentration in Mouse Striatal Dialysate (Corrected for Dilution), Mean",[4]; [15],BQL
same,Cmax,"[4]; striatal dialysate, fosmetpantotenate 700 mg/kg PO, analyte = label, not baseline-adjusted",<LLOQ
same,half-life at 1 μM,"[5]; pH 7.4, 1 μM, NADPH",11 min
same,microsomal CLint at 1 μM,[5]; [6],263 µL/min/mg
